ChEMBL document CHEMBL4138123, “Design, synthesis and biological evaluation of novel pyrazolochalcones as potential modulators of PI3K/Akt/mTOR pathway and inducers of apoptosis in breast cancer cells” (Eur J Med Chem, 2017)

Legend:
Assay type in all cases: functional
T47D = test: Cytotoxicity against human T47D cells assessed as cell growth at 1 uM after 48 hrs by sulforhodamine B assay relative to control; conditions: read-out: Activity
U-251 [1] = test: Cytotoxicity against human U251 cells assessed as cell growth at 1 uM after 48 hrs by sulforhodamine B assay relative to control; conditions: U-251, 48 h, read-out: Activity
DU-145 = test: Cytotoxicity against human DU145 cells assessed as cell growth at 0.01 uM after 48 hrs by sulforhodamine B assay relative to control; conditions: DU-145, 48 h, read-out: Activity
A549 [2] = test: Cytotoxicity against human A549/ATCC cells assessed as cell growth at 0.1 uM after 48 hrs by sulforhodamine B assay relative to control; conditions: A549, 48 h, read-out: Activity
MCF7 = test: Cytotoxicity against human MCF7 cells assessed as cell growth at 100 uM after 48 hrs by sulforhodamine B assay relative to control; conditions: MCF7, 48 h, read-out: Activity
NCI-H23 = test: Cytotoxicity against human NCI-H23 cells assessed as growth inhibition after 48 hrs by sulforhodamine B assay; conditions: NCI-H23, 48 h
SNB-19 [3] = test: Cytotoxicity against human SNB19 cells assessed as cell growth at 1 uM after 48 hrs by sulforhodamine B assay relative to control; conditions: SNB-19, 48 h, read-out: Activity
RPMI-8226 = test: Cytotoxicity against human RPMI8226 cells assessed as growth inhibition after 48 hrs by sulforhodamine B assay; conditions: RPMI-8226, 48 h
PC-3 = test: Cytotoxicity against human PC3 cells assessed as growth inhibition after 48 hrs by sulforhodamine B assay; conditions: PC-3, 48 h
OVCAR-4 = test: Cytotoxicity against human OVCAR4 cells assessed as cell growth at 10 uM after 48 hrs by sulforhodamine B assay relative to control; conditions: OVCAR-4, 48 h, read-out: Activity
NCI-H522 = test: Cytotoxicity against human NCI-H522 cells assessed as cell growth at 0.01 uM after 48 hrs by sulforhodamine B assay relative to control; conditions: NCI-H522, 48 h, read-out: Activity
HCC 2998 = test: Cytotoxicity against human HCC2998 cells assessed as cell growth at 0.01 uM after 48 hrs by sulforhodamine B assay relative to control; conditions: HCC 2998, 48 h, read-out: Activity
HCT-15 = test: Cytotoxicity against human HCT15 cells assessed as cell growth at 0.01 uM after 48 hrs by sulforhodamine B assay relative to control; conditions: HCT-15, 48 h, read-out: Activity
Malme-3M = test: Cytotoxicity against human MALME-3M cells assessed as cell growth at 0.1 uM after 48 hrs by sulforhodamine B assay relative to control; conditions: read-out: Activity
ACHN = test: Cytotoxicity against human ACHN cells assessed as cell growth at 1 uM after 48 hrs by sulforhodamine B assay relative to control; conditions: read-out: Activity
HOP-62 = test: Cytotoxicity against human HOP62 cells assessed as cell growth at 10 uM after 48 hrs by sulforhodamine B assay relative to control; conditions: HOP-62, 48 h, read-out: Activity
U-251 [4] = test: Cytotoxicity against human U251 cells assessed as cell growth at 10 uM after 48 hrs by sulforhodamine B assay relative to control; conditions: U-251, 48 h, read-out: Activity
HCT-116 = test: Cytotoxicity against human HCT116 cells assessed as cell growth at 100 uM after 48 hrs by sulforhodamine B assay relative to control; conditions: HCT-116, 48 h, read-out: Activity
K562 = test: Cytotoxicity against human K562 cells assessed as cell growth at 0.01 uM after 48 hrs by sulforhodamine B assay relative to control; conditions: K562, 48 h, read-out: Activity
SK-OV-3 = test: Cytotoxicity against human SKOV3 cells assessed as cell growth at 10 uM after 48 hrs by sulforhodamine B assay relative to control; conditions: SK-OV-3, 48 h, read-out: Activity
SW-620 = test: Cytotoxicity against human SW620 cells assessed as growth inhibition after 48 hrs by sulforhodamine B assay; conditions: SW-620, 48 h
COLO 205 = test: Cytotoxicity against human COLO205 cells assessed as cell growth at 0.01 uM after 48 hrs by sulforhodamine B assay relative to control; conditions: COLO 205, 48 h, read-out: Activity
SR = test: Cytotoxicity against human SR cells assessed as cell growth at 100 uM after 48 hrs by sulforhodamine B assay relative to control; conditions: read-out: Activity
A498 = test: Cytotoxicity against human A498 cells assessed as cell growth at 0.1 uM after 48 hrs by sulforhodamine B assay relative to control; conditions: A498, 48 h, read-out: Activity
SNB-19 [5] = test: Cytotoxicity against human SNB19 cells assessed as cell growth at 0.01 uM after 48 hrs by sulforhodamine B assay relative to control; conditions: SNB-19, 48 h, read-out: Activity
SN12C [6] = test: Cytotoxicity against human SN12C cells assessed as cell growth at 100 uM after 48 hrs by sulforhodamine B assay relative to control; conditions: read-out: Activity
NCI-H322M = test: Cytotoxicity against human NCI-H322M cells assessed as growth inhibition after 48 hrs by sulforhodamine B assay
SN12C [7] = test: Cytotoxicity against human SN12C cells assessed as growth inhibition after 48 hrs by sulforhodamine B assay
OVCAR-3 [8] = test: Cytotoxicity against human OVCAR3 cells assessed as cell growth at 1 uM after 48 hrs by sulforhodamine B assay relative to control; conditions: OVCAR-3, 48 h, read-out: Activity
MDA-MB-231 = test: Cytotoxicity against human MDA-MB-231 cells assessed as cell growth at 100 uM after 48 hrs by sulforhodamine B assay relative to control; conditions: MDA-MB-231, 48 h, read-out: Activity
A549 [9] = test: Cytotoxicity against human A549/ATCC cells assessed as cell growth at 0.01 uM after 48 hrs by sulforhodamine B assay relative to control; conditions: A549, 48 h, read-out: Activity
IGROV-1 = test: Cytotoxicity against human IGROV1 cells assessed as cell growth at 0.01 uM after 48 hrs by sulforhodamine B assay relative to control; conditions: IGROV-1, 48 h, read-out: Activity
NCI/ADR-RES = test: Cytotoxicity against human NCI/ADR-RES cells assessed as growth inhibition after 48 hrs by sulforhodamine B assay
OVCAR-3 [10] = test: Cytotoxicity against human OVCAR3 cells assessed as cell growth at 0.1 uM after 48 hrs by sulforhodamine B assay relative to control; conditions: OVCAR-3, 48 h, read-out: Activity
Hs-578T = test: Cytotoxicity against human Hs 578T cells assessed as cell growth at 10 uM after 48 hrs by sulforhodamine B assay relative to control; conditions: read-out: Activity
UACC-62 = test: Cytotoxicity against human UACC62 cells assessed as growth inhibition after 48 hrs by sulforhodamine B assay; conditions: UACC-62, 48 h
[11] = read-out: LC50 (the source's name)

## COc1ccc(C(=O)/C=C/c2cc(-c3ccc(OC)c(OC)c3)n[nH]2)cc1OC
T47D
  growth at 1 µM: 60%
U-251 [1]
  growth at 1 µM: 62%
DU-145
  growth at 0.01 µM: 106%
A549 [2]
  growth at 0.1 µM: 93%
MCF7
  growth at 100 µM: -40%
NCI-H23
  GI50: 2.25 µM
  TGI: 5.7 µM
NCI-H23; [11]
  CC50: > 100 µM
SNB-19 [3]
  growth at 1 µM: 78%
RPMI-8226
  GI50: 0.357 µM
  TGI: 2.26 µM
PC-3
  GI50: 1.98 µM
  TGI: 35.7 µM
OVCAR-4
  growth at 10 µM: -7%
NCI-H522
  growth at 0.01 µM: 91%
HCC 2998
  growth at 0.01 µM: 107%
HCT-15
  growth at 0.01 µM: 96%
Malme-3M
  growth at 0.1 µM: 106%
ACHN
  growth at 1 µM: 76%
HOP-62
  growth at 10 µM: -25%
U-251 [4]
  growth at 10 µM: -85%
HCT-116
  growth at 100 µM: -45%
K562
  growth at 0.01 µM: 101%
SK-OV-3
  growth at 10 µM: 9%
SW-620
  GI50: 1.5 µM
  TGI: 5.41 µM
COLO 205
  growth at 0.01 µM: 90%
SR
  growth at 100 µM: -17%
A498
  growth at 0.1 µM: 81%
SNB-19 [5]
  growth at 0.01 µM: 91%
SN12C [6]
  growth at 100 µM: -37%
NCI-H322M
  GI50: 2.67 µM
  TGI: 8.23 µM
NCI-H322M; [11]
  CC50: > 100 µM
SN12C [7]
  GI50: 1.92 µM
  TGI: 4.82 µM
OVCAR-3 [8]
  growth at 1 µM: 88%
MDA-MB-231
  growth at 100 µM: -28%
A549 [9]
  growth at 0.01 µM: 97%
IGROV-1
  growth at 0.01 µM: 104%
NCI/ADR-RES
  GI50: 3.43 µM
  TGI: 33.1 µM
OVCAR-3 [10]
  growth at 0.1 µM: 109%
Hs-578T
  growth at 10 µM: 23%
UACC-62
  GI50: 1.86 µM
  TGI: 4.08 µM
